# Experimental data from US20080070868A1, “Novel Thiazole Inhibitors of Fructose 1,6-bisphosphatase” (Metabasis Therapeutics, Inc., priority 2004, published 2008).
# Entries after “also recorded” stand apart in the source; their conditions may differ.
# Assays:
# [1] = molecular target: T1, human NAT2 (Homo sapiens, UniProt P11245); assay: N-acetylation by recombinant human NAT2
# T1 sequence (P11245 1-290): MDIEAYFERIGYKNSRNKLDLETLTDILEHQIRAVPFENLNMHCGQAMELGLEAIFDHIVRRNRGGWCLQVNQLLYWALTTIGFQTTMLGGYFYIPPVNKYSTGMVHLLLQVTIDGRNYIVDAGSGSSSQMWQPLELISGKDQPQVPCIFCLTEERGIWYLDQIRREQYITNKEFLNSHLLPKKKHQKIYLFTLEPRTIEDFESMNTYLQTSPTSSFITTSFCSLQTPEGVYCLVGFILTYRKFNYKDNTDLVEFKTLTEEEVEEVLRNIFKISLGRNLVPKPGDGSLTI
# Experimental: (§1) Insect cell-expressed human NAT1 and NAT2 and control insect cytosol were obtained from BD Gentest (Bedford, Mass.). Compounds (100 μM) were incubated in 0.25 mL of NAT reaction cocktail consisting of 25 mM potassium phosphate pH 7.4 (at 25° C.), 1 mM EDTA, 1 mM DTT, 0.5 mM acetyl CoA, 5 mM acetyl-DL-carnitine, 20 u/mL acetyltransferase and either NAT1, NAT2 or control insect cytosol (0.1 mg/mL). Reactions were performed in an Eppendorf Thermomixer (37° C., 120 min.). At 0 and 120 min., 100 μl of each reaction was removed and added to a clean 1.7 mL tube containing 150 μl of 100% methanol. The tubes were vortexed and centrifuged at 14,000 rpm for 10 min. in an Eppendorf microcentrifuge (room temperature, 5 min., 14,000 rpm). The supernatants were analyzed by HPLC (Agilent 1100 series) using a Phenosphere C18 column (5 micron, 150×4.6 mm). The column was equilibrated with 20 mM potassium phosphate pH 4.5 or pH 6.2 (at 25° C.) and eluted with a linear gradient to 80% acetonitrile. The percent conversion of the compounds was calculated from the following equation: area of N-acyl product divided by (area of compound+area of N-acyl product), multiplied by 100.
# [2] = molecular target: T2, human liver FBPase (Homo sapiens, UniProt P09467); assay: Inhibition of human liver FBPase; type: biochemical; details: purified recombinant human liver FBPase, 0.150 mM fructose 1,6-bisphosphate, 37° C.; read-out: IC50 (hlFBPase)
# T2 construct: made in house; host or cells: E. coli BL21
# T2 sequence (P09467 2-338 limits assumed): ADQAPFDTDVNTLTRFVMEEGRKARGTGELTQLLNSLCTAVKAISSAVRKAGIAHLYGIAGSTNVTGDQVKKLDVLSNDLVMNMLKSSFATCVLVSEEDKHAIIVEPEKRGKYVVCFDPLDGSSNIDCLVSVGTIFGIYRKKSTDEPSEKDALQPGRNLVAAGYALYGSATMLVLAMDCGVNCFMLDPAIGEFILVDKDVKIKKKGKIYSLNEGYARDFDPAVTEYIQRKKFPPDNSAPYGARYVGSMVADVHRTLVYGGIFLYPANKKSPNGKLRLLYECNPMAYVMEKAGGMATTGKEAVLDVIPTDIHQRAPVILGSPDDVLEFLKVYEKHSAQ
# Experimental: E. coli strain BL21 transformed with a human liver FBPase-encoding plasmid was obtained from Dr. M. R. El-Maghrabi at the State University of New York at Stony Brook. […] Enzymatic activity was measured spectrophotometrically in reactions that coupled the formation of product (fructose 6-phosphate) to the reduction of dimethylthiazoldiphenyltetrazolium bromide (MTT) via NADP^+ and phenazine methosulfate (PMS), using phosphoglucose isomerase and glucose 6-phosphate dehydrogenase as the coupling enzymes. Reaction mixtures (200 μl) were made up in 96-well microtitre plates, and consisted of 50 mM Tris-HCl, pH 7.4, 100 mM KCl, 5 mM EGTA, 2 mM MgCl2, 0.2 mM NADP, 1 mg/ml BSA, 1 mM MTT, 0.6 mM PMS, 1 unit/ml phosphoglucose isomerase, 2 units/ml glucose 6-phosphate dehydrogenase, and 0.150 mM substrate (fructose 1,6-bisphosphate). Inhibitor concentrations were varied from 0.01 μM to 10 μM. Reactions were started by the addition of 0.002 units of pure hlFBPase, and were monitored for 7 min. at 590 nm in a Molecular Devices Plate Reader (37° C.).
# [3] = molecular target: T3, human NAT1 (Homo sapiens, UniProt P18440); assay: N-acetylation by recombinant human NAT1; type: in vitro ADME
# T3 construct: purchased BD Gentest (Bedford, Mass.); host or cells: insect cells
# T3 sequence (P18440 1-290): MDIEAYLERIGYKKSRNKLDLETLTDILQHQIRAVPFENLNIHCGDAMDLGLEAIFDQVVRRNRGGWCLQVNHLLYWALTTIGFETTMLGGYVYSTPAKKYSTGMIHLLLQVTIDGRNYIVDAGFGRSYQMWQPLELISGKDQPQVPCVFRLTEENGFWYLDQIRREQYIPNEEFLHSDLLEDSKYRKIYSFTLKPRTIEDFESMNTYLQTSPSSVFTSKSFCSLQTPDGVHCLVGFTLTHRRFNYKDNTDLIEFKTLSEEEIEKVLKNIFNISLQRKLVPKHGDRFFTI
# Experimental: as §1
# [4] = Variability of N-acetylation in human liver S9 fractions; type: in vitro ADME; details: 100 μM, S9 10 mg/mL protein; donors with high or low N-acetylase activity
# Experimental: The reactions are incubated, processed, and analyzed as described in Example C.
# [5] = molecular target: T4, rat liver FBPase (Rattus norvegicus, UniProt P19112); assay: Inhibition of rat liver FBPase; type: biochemical; details: partially purified rat liver FBPase; read-out: IC50 (rlFBPase)
# T4 construct: This partially purified fraction was used for enzyme assays; from tissue; host or cells: rat liver (45-75% ammonium sulfate fraction of the homogenate)
# T4 sequence (P19112 2-363 limits assumed): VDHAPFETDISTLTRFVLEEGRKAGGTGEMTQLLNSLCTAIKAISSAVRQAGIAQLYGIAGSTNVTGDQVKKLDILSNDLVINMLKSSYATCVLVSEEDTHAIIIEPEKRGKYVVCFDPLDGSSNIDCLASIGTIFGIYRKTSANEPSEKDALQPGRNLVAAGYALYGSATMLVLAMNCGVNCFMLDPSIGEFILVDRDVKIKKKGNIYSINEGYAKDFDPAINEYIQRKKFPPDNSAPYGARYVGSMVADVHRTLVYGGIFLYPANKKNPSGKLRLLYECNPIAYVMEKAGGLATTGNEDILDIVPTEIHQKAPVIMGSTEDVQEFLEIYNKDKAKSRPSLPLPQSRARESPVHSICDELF
# Experimental: Rat liver FBPase was obtained by homogenizing freshly isolated rat liver in 100 mM Tris-HCl buffer, pH 7.4, containing 1 mM EGTA, and 10% glycerol. The homogenate was clarified by centrifugation, and the 45-75% ammonium sulfate fraction prepared. This fraction was redissolved in the homogenization buffer and desalted on a PD-10 gel filtration column (Biorad) eluted with same. This partially purified fraction was used for enzyme assays.
# [6] = compound 100 μM, 37° C., 120 min, N-acyl product by HPLC
smiles,measurement,setting,value
"CC(C)(C)C(=O)c1sc(N)nc1-c1ccc(P(=O)(O)O)o1 [Compound 1.1, {5-[2-amino-5-(2,2-dimethylpropionyl)thiazol-4-yl]-furan-2-yl}phosphonic acid]",% Conversion NAT2,[1]; [6],0%
same,"susceptibility to N-acetylation by NAT2, in words",[1]; human recombinant NAT2,insusceptible
same,IC50,[2],31 nM
same,% Conversion NAT1,[3]; [6],0%
same,"susceptibility to N-acetylation by NAT1, in words",[3]; human recombinant NAT1,not metabolized; also recorded: insusceptible
same,conversion to N-acetylated metabolite in human liver S9 from various donors,[4],no conversion
same,IC50,[5],189 nM
